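Exposure lasted 48 hours, with cells grown in 96-well plates and compounds tested at five concentrations. TGI denotes the concentration required for complete inhibition of growth.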
Experiments:
Assay in all cases: inhibition of tumour cell growth, NCI panel, 48 h
A498 renal = test system: A498 renal
A549 NSCLC = test system: A549 NSCLC
ACHN renal = test system: ACHN renal
CAKI-1 renal = test system: CAKI-1 renal
CCRF-CEM leukemia = test system: CCRF-CEM leukemia
COLO 205 colon = test system: COLO 205 colon
DLD-1 colon = test system: DLD-1 colon
DMS 114 small cell lung = test system: DMS 114 small cell lung
DMS 273 small cell lung = test system: DMS 273 small cell lung
EKVX NSCLC = test system: EKVX NSCLC
HCC-2998 colon = test system: HCC-2998 colon
HCT-116 colon = test system: HCT-116 colon
HL-60(TB) leukemia = test system: HL-60(TB) leukemia
HOP-62 NSCLC = test system: HOP-62 NSCLC
HOP-92 NSCLC = test system: HOP-92 NSCLC
HT29 colon = test system: HT29 colon
IGROV1 ovarian = test system: IGROV1 ovarian
K-562 leukemia = test system: K-562 leukemia
KM12 colon = test system: KM12 colon
KM20L2 colon = test system: KM20L2 colon
LOX IMVI melanoma = test system: LOX IMVI melanoma
LXFL 529 NSCLC = test system: LXFL 529 NSCLC
M14 melanoma = test system: M14 melanoma
M19-MEL melanoma = test system: M19-MEL melanoma
MALME-3M melanoma = test system: MALME-3M melanoma
MOLT-4 leukemia = test system: MOLT-4 leukemia
NCI-H226 lung = test system: NCI-H226 lung
NCI-H23 lung = test system: NCI-H23 lung
NCI-H460 lung = test system: NCI-H460 lung
NCI-H522 lung = test system: NCI-H522 lung
OVCAR-3 ovarian = test system: OVCAR-3 ovarian
OVCAR-4 ovarian = test system: OVCAR-4 ovarian
OVCAR-5 ovarian = test system: OVCAR-5 ovarian
RXF 393 renal = test system: RXF 393 renal
RXF-631 renal = test system: RXF-631 renal
SF-268 CNS = test system: SF-268 CNS
SF-295 CNS = test system: SF-295 CNS
SF-539 CNS = test system: SF-539 CNS
SK-MEL-2 melanoma = test system: SK-MEL-2 melanoma
SK-MEL-28 melanoma = test system: SK-MEL-28 melanoma
SK-MEL-5 melanoma = test system: SK-MEL-5 melanoma
SK-OV-3 ovarian = test system: SK-OV-3 ovarian
SN12C renal = test system: SN12C renal
SNB-19 CNS = test system: SNB-19 CNS
SNB-75 CNS = test system: SNB-75 CNS
SNB-78 CNS = test system: SNB-78 CNS
SR leukemia = test system: SR leukemia
SW-620 colon = test system: SW-620 colon
TK-10 renal = test system: TK-10 renal
U251 CNS = test system: U251 CNS
UACC-257 melanoma = test system: UACC-257 melanoma
UACC-62 melanoma = test system: UACC-62 melanoma
UO-31 renal = test system: UO-31 renal
XF 498 CNS = test system: XF 498 CNS
786-0 renal = test system: 786-0 renal
HCT-15 colon = test system: HCT-15 colon
OVCAR-8 ovarian = test system: OVCAR-8 ovarian
RPMI-8226 leukemia = test system: RPMI-8226 leukemia

Measured: TGI

C=CCCN1CCc2c([nH]c3ccccc23)C1C(=O)O (stereo not drawn)
> 100 µM: A498 renal | A549 NSCLC | ACHN renal | CAKI-1 renal | CCRF-CEM leukemia | COLO 205 colon | DLD-1 colon | DMS 114 small cell lung | DMS 273 small cell lung | EKVX NSCLC | HCC-2998 colon | HCT-116 colon | HL-60(TB) leukemia | HOP-62 NSCLC | HOP-92 NSCLC | HT29 colon | IGROV1 ovarian | K-562 leukemia | KM12 colon | KM20L2 colon | LOX IMVI melanoma | LXFL 529 NSCLC | M14 melanoma | M19-MEL melanoma | MALME-3M melanoma | MOLT-4 leukemia | NCI-H226 lung | NCI-H23 lung | NCI-H460 lung | NCI-H522 lung | OVCAR-3 ovarian | OVCAR-4 ovarian | OVCAR-5 ovarian | RXF 393 renal | RXF-631 renal | SF-268 CNS | SF-295 CNS | SF-539 CNS | SK-MEL-2 melanoma | SK-MEL-28 melanoma | SK-MEL-5 melanoma | SK-OV-3 ovarian | SN12C renal | SNB-19 CNS | SNB-75 CNS | SNB-78 CNS | SR leukemia | SW-620 colon | TK-10 renal | U251 CNS | UACC-257 melanoma | UACC-62 melanoma | UO-31 renal | XF 498 CNS

CC1(C)SCc2nc3ncccc3n21
> 100 µM: 786-0 renal | A498 renal | A549 NSCLC | ACHN renal | CAKI-1 renal | CCRF-CEM leukemia | COLO 205 colon | DLD-1 colon | DMS 114 small cell lung | EKVX NSCLC | HCC-2998 colon | HCT-15 colon | HL-60(TB) leukemia | HOP-62 NSCLC | HOP-92 NSCLC | HT29 colon | IGROV1 ovarian | K-562 leukemia | KM12 colon | KM20L2 colon | LOX IMVI melanoma | LXFL 529 NSCLC | M14 melanoma | M19-MEL melanoma | MALME-3M melanoma | MOLT-4 leukemia | NCI-H226 lung | NCI-H23 lung | NCI-H460 lung | NCI-H522 lung | OVCAR-3 ovarian | OVCAR-4 ovarian | OVCAR-5 ovarian | OVCAR-8 ovarian | RPMI-8226 leukemia | RXF 393 renal | RXF-631 renal | SF-268 CNS | SF-295 CNS | SF-539 CNS | SK-MEL-2 melanoma | SK-MEL-28 melanoma | SK-MEL-5 melanoma | SK-OV-3 ovarian | SN12C renal | SNB-75 CNS | SNB-78 CNS | SW-620 colon | TK-10 renal | U251 CNS | UACC-257 melanoma | UACC-62 melanoma | UO-31 renal | XF 498 CNS

From PubChem BioAssay (NCI)
